Experimental findings from patent US11141368B2, “Cosmetic composition, cosmetic treatment method, kit, and compound” (L'OREAL, priority 2010, dated 2021) are described below.

A short description of assay [1]: Improvement of hair straightening: leave-in post-treatment of alkaline-straightened hair, visual observation. To be noted: 5% by weight in distilled water. The text has this:
Applied to hair (originally curly hair of curliness IV) straightened by an alkaline hair-straightening product (Goldys—2% active sodium hydroxide) is the following composition, with an amount of product/amount of hair ratio (g/g) of 2, without rinsing: • 5% by weight of compound (2) from Example 2 • qs for 100% distilled water
Observations are made at T0.
The locks are then washed once or 5 times using Ultra Mild shampoo (Garnier), then dried. Observations are made at T1 (after 1 shampoo wash) and at T5 (after 5 shampoo washes).
The control locks are treated with a composition comprising 100% distilled water.

Assay [2] is described as follows: Porosity measurement of the locks of hair using a fluorescent probe. To be noted: after 5 shampoo washes, 5% by weight in distilled water.

With `Cc1cc(=O)nc(NC(=O)NCCCN(C)C)[nH]1` [Compound 2, N-[3-(dimethylamino)propyl]-N′-(6-methyl-4-oxo-1,4-dihydropyrimidin-2-yl)urea], in assay [1] (T0, product/hair ratio 2 g/g, no rinsing, hair straightened with 2% sodium hydroxide product), the “hair-straightening efficiency compared to control post-treatment (distilled water)” value is “improved”. For the same compound, the “persistence of the improvement in hair-straightening efficiency after shampoo washes” value in assay [1] (T1 (after 1 shampoo wash) and T5 (after 5 shampoo washes)) is “persists”. Besides, the “internal porosity of the hair versus control hair” value in assay [2] is “equivalent porosity”.
